Test results taken from PMC7253457, “Nitrite modulates aminoglycoside tolerance by inhibiting cytochrome heme-copper oxidase in bacteria” (Communications Biology, 2020).

Assays:
[1] = target: T1, S. oneidensis cbb3 (heme-copper oxidase cbb3) (Shewanella oneidensis, UniProt Q8EEL5); conditions: read-out: IC50(NO2^-); 5 mM NADH as electron donor; ~70 μM O2; membranes of delta-cyd strain
T1 construct: gene ccoN
Description: oxygen consumption of membranes, O2 electrode on S. oneidensis cbb3 (heme-copper oxidase cbb3)

[2] = target: T2, bd (bd-type quinol oxidase) (Shewanella oneidensis, UniProt Q8EC58); conditions: read-out: IC50(NO2^-); 5 mM NADH as electron donor; ~70 μM O2; membranes of delta-cco strain
T2 construct: gene cydA
T2 sequence (Q8EC58 1-518): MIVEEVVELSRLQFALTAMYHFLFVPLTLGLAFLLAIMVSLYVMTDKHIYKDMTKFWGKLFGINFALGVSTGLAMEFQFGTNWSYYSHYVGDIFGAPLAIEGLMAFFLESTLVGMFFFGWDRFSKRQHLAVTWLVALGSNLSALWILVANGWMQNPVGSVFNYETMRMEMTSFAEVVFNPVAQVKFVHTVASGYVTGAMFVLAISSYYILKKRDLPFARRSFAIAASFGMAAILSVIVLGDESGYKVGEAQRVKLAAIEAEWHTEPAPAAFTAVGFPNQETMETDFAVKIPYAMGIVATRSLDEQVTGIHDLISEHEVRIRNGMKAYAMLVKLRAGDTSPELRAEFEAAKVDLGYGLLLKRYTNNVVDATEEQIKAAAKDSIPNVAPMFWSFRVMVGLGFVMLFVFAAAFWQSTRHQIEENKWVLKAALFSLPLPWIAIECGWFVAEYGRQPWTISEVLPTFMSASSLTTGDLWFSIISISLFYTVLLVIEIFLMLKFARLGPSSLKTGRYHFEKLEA
T2 sequence (Q8EC59 1-379 partner): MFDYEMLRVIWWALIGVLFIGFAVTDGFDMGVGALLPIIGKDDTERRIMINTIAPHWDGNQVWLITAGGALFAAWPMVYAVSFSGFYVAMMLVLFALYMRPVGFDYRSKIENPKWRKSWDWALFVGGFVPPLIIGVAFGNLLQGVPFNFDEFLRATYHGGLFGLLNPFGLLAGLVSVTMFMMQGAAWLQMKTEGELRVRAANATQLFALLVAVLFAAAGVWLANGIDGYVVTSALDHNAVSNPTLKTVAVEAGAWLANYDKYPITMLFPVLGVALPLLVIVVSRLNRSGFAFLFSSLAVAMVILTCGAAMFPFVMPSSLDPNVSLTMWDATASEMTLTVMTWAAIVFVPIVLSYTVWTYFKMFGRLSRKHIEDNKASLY
Description: oxygen consumption of membranes, O2 electrode on bd (bd-type quinol oxidase)

[3] = target: T3, S. aureus aa3 (cytochrome aa3 oxidase) (Staphylococcus aureus, UniProt Q7A699); test: biochemical
T3 construct: gene qoxB
T3 sequence (Q7A699 whole entry): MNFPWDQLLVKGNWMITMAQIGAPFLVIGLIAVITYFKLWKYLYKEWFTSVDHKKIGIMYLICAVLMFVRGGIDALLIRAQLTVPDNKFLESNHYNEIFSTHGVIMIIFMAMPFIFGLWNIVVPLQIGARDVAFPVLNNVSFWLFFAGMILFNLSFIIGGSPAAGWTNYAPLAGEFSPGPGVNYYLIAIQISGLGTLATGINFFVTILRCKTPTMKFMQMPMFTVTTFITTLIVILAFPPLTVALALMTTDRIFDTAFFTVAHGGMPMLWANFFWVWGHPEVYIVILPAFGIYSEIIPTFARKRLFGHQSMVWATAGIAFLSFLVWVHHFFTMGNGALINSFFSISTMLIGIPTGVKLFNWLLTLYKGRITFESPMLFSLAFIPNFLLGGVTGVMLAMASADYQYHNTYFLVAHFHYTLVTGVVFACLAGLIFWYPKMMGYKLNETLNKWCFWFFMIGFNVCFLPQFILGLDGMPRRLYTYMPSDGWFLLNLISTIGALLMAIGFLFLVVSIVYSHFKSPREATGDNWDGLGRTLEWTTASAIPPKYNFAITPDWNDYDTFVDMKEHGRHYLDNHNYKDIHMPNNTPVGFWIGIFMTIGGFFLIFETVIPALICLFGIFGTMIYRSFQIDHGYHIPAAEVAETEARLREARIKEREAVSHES
T3 sequence (Q7A698 20-366 partner): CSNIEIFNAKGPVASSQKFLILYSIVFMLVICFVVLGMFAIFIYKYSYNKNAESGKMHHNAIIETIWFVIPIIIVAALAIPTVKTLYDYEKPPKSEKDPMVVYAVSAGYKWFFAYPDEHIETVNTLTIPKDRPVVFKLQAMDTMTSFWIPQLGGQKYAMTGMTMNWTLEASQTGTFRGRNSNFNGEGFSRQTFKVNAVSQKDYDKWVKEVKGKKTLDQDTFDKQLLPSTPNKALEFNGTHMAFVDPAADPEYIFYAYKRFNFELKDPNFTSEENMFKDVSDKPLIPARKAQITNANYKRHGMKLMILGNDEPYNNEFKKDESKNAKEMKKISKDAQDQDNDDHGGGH
T3 sequence (Q7A6A0 whole entry partner): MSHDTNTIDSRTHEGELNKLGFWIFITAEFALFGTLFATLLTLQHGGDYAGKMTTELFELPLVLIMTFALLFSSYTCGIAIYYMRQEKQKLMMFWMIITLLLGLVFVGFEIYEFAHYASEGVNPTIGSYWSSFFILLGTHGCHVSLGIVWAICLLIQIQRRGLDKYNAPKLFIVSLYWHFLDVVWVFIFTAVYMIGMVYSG
T3 sequence (Q7A6A1 whole entry partner): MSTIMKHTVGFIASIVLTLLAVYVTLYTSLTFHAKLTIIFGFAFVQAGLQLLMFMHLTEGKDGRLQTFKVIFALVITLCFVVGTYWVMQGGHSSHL
Description: oxygen consumption of membranes, O2 electrode on S. aureus aa3 (cytochrome aa3 oxidase)

[4] = target: T4, E. coli bo3 (cytochrome bo3 oxidase) (Escherichia coli, UniProt P0ABI8); test: biochemical
T4 construct: gene cyoB
T4 sequence (P0ABI8 whole entry): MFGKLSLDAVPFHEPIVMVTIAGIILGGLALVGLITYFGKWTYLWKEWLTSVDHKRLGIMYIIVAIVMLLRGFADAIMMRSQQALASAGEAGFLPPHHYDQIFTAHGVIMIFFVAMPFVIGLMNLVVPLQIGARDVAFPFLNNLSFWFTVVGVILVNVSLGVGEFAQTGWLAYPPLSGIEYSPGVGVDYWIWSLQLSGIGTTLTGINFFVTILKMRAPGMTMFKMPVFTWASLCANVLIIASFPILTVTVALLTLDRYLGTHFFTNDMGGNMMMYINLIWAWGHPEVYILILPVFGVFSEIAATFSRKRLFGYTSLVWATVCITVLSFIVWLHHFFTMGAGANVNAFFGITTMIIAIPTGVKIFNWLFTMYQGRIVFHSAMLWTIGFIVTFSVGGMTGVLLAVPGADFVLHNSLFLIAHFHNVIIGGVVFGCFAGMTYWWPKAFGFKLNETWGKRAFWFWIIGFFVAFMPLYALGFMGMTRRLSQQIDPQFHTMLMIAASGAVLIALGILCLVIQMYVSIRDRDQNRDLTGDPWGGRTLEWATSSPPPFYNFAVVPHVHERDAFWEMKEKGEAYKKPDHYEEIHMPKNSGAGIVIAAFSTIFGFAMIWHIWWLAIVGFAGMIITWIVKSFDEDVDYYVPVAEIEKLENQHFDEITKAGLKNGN
T4 sequence (P0ABJ1 25-315 partner): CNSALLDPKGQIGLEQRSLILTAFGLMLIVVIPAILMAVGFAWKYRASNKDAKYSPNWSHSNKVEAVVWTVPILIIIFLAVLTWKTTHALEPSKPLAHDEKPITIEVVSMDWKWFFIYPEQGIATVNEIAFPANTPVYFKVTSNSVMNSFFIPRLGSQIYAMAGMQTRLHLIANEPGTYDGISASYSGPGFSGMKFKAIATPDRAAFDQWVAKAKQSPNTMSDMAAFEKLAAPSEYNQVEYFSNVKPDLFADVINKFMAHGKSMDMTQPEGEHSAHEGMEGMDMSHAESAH
T4 sequence (P0ABJ3 whole entry partner): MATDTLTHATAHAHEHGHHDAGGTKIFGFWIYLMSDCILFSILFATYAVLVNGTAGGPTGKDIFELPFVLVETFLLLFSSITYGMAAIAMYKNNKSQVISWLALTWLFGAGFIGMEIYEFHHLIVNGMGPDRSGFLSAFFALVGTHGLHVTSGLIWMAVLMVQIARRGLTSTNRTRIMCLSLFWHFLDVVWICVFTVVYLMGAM
T4 sequence (P0ABJ6 whole entry partner): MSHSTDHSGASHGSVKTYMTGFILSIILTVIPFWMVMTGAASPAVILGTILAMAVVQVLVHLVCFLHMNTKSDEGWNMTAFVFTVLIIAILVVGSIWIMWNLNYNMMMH
Description: oxygen consumption of membranes, O2 electrode on E. coli bo3 (cytochrome bo3 oxidase)

T1 sequence (Q8EEL5 1-478): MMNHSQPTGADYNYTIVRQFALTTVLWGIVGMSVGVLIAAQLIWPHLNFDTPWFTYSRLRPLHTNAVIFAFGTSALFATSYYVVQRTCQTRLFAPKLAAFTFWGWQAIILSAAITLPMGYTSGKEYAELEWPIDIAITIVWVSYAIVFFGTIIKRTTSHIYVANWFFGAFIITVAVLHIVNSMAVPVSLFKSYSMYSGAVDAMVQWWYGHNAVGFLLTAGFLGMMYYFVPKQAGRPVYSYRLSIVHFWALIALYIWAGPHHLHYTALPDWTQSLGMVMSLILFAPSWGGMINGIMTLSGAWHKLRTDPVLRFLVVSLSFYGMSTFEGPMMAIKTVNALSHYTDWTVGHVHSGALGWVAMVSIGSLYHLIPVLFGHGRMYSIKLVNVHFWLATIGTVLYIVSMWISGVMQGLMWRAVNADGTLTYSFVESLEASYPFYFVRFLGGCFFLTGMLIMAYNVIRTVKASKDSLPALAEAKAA
T1 sequence (Q8EEL6 1-208 partner): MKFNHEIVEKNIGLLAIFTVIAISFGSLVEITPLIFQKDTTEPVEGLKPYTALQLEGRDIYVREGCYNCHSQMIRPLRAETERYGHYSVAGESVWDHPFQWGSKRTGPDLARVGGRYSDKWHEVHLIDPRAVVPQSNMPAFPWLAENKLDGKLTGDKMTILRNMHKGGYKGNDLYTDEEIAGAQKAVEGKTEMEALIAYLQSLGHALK
T1 sequence (Q8EEL8 1-322 partner): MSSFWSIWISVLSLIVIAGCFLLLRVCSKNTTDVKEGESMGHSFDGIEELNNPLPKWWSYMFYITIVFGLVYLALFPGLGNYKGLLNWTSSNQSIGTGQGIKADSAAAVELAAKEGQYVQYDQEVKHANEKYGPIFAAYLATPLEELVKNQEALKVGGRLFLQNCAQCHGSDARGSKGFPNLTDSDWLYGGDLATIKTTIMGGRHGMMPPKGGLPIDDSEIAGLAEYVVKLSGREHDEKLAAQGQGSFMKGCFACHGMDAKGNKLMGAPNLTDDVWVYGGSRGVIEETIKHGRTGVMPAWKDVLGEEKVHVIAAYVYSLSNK
T1 sequence (Q8EEL7 1-58 partner): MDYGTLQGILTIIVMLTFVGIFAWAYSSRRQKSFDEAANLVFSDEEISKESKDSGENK

Work on `O=NO` [nitrite] yielded an IC50 [1] of 57 ± 6 µM, an IC50 [2] of 207 ± 18 µM and an IC50 [3] of 137 ± 15 µM. For the same compound, the IC50 [4] was 120 ± 13 µM.
